According to patent US20230058171A1, “NEW ORAL PHARMACEUTICAL COMPOSITION FOR CANCER THERAPY” (BOEHRINGER INGELHEIM INTERNATIONAL GMBH, priority 2021, published 2023):

Key:
[1] = tested on: patients with advanced or metastatic solid tumors; experiment: Trial 1403-0001 dose finding: MTD/RDE, BLRM analysis with overdose control (EWOC); type: in vivo; conditions: for N of evaluable patients with events of interests: all cycles
Text: Preliminary pharmacokinetic (PK) data were also used as supportive information for the dose decision.

[2] = tested on: advanced or metastatic solid tumors; experiment: Trial 1403-0001 efficacy: tumor response according to RECIST1.1; type: in vivo, human; conditions: for Best overall response / days of exposure to the MDM2i of formula I: MDM2 AMPL
Text: Trial 1403-0001 was a first in human Phase Ia/Ib, open label, multicenter, dose-escalation study of the MDM2-antagonist of formula I in patients with advanced or metastatic solid tumors. The Phase Ia dose escalation part aimed to define the Maximum Tolerated Dose (MTD) and the Recommended Dose for Expansion (RDE) for the MDM2-antagonist of formula I based on safety and tolerability, pharmacokinetics, pharmacodynamics, and preliminary efficacy. The RDE will be further explored in the Phase Ib expansion part of the trial.
15 patients in Arm B experienced a stable disease in arm B (representing 60% of all treated patients).
A treatment with a drug candidate (here the MDM2-antagonist of formula I) leading to a “PARTIAL RESPONSE (PR)” is defined by a ≥30% decrease in the sum of diameters of target lesions, taking as reference the sum of diameters of the target lesions prior to treatment (=baseline sum of diameters) according to the RECIST1.1 criteria (Eisenhauer et al, Eur. J. Canc. (2009), Vol. 45, pp. 228-247).
A treatment with a drug candidate (here the MDM2-antagonist of formula I) leading to a “PROGRESSIVE DISEASE (PD)” is defined by a ≥20% increase in the sum of diameters of target lesions, taking as reference the smallest sum of diameters of target lesions on study (including the baseline sum of diameters if that is the smallest sum of diameters of target lesions on study) according to the RECIST1.1 criteria (Eisenhauer et al, Eur. J. Canc. (2009), Vol. 45, pp. 228-247).
A treatment with a drug candidate (here the MDM2-antagonist of formula I) leading to a “STABLE DISEASE (SD)” is defined by neither sufficient shrinkage to qualify for PR nor sufficient increase to qualify for PD, taking as reference the smallest sum of diameters of the target lesions on study (including the baseline sum of diameters if that is the smallest sum of diameters on study) according to the RECIST1.1 criteria (Eisenhauer et al, Eur. J. Canc. (2009), Vol. 45, pp. 228-247).

[3] = Human therapeutic dose prediction
Procedure: (§1) Preliminary pharmacokinetic (PK) data were used as supportive information for the dose decision. The human therapeutic dose was predicted based on a minimum effective AUC0-168 of 30,700 nM*h (QW), which was determined in a mouse SJSA-1 xenograft experiment. For this, the difference in plasma protein binding between human and mouse was taken into account, which translated to an effective AUC0-168 of 11,350 nM*h for QW dosing in humans. The human therapeutic dose was predicted to be 64 mg (free acid) with QW dosing.

[4] = tested on: SJSA-1 xenograft; experiment: Mouse SJSA-1 xenograft experiment: minimum effective AUC; type: in vivo; conditions: QW
Procedure: as §1

[5] = Arm A patient 1392001001, WD LPS, 20 mg D1q3w
[6] = Arm A patient 1392001006, DDLPS, 50 mg D1q3w
[7] = Arm A patient 1840003004, DDLPS, 60 mg D1q3w, no prior therapy
[8] = Arm A patient 1840003006, DDLPS, 50 mg D1q3w
[9] = Arm A patient 1840003008, DDLPS, 60 mg D1q3w
[10] = Arm B patient 1392001005, DDLPS, 15/15 mg D1D8q4w
[11] = Arm B patient 1392001007, DDLPS, 30/30 mg D1D8q4w
[12] = Arm B patient 1392001009, WD LPS, 60/60 mg D1D8q4w
[13] = Arm B patient 1840002005, DDLPS, 20/20 mg D1D8q4w, no prior therapy
[14] = Arm B patient 1840003009, DDLPS, 45/45 mg D1D8q4w
[15] = Arm B patient 1840003010, DDLPS, 45/45 mg D1D8q4w
[16] = Arm B patient 1840003011, WD LPS, 30/30 mg D1D8q4w
[17] = Arm B patient 1840003014, WD LPS, 45/45 mg D1D8q4w

For `Cc1c(C(=O)O)ccc2c3n(nc12)[C@@H]1[C@H](C3)N(CC2CC2)[C@@]2(C(=O)Nc3cc(Cl)ccc32)[C@H]1c1cccc(Cl)c1F` [MDM2-antagonist of formula I, (2′S,3′S,3a'S,10a'S)-6-chloro-3′-(3-chloro-2-fluorophenyl)-1′-(cyclopropylmethyl)-6′-methyl-2-oxo-1,2,3′,3a′,10′,10a′-hexahydro-1′H-spiro[indole-3,2′-pyrrolo[2′,3′:4,5]pyrrolo[1,2-b]indazole]-7′-carboxylic acid], the “N of evaluable patients with events of interests” value (from here on “N of evaluable patients”) ([1]; Arm A, 10 mg (1 evaluable)) was 1, the “N of evaluable patients” value ([1]; Arm A, 20 mg (2 evaluable)) was 1 and the “N of evaluable patients” value ([1]; Arm A, 30 mg (3 evaluable)) was 1. For the same compound, the “N of evaluable patients” value ([1]; Arm A, 45 mg (6 evaluable)) was 1, the “N of evaluable patients” value ([1]; Arm A, 50 mg (4 evaluable)) was 1 and the “N of evaluable patients” value ([1]; Arm A, 60 mg (7 evaluable)) was 2. For the same compound, the “N of evaluable patients” value ([1]; Arm A, 80 mg (6 evaluable)) was 5, the “highest dose level that fulfilled the EWOC criterion from the additional BLRM analysis” value ([1]; Arm A, events of interest during the entire treatment period) was 45 mg and the “Maximum Tolerated Dose (MTD)” value ([1]; monotherapy, Arm A D1 q3w) was 60 mg. The “Recommended Dose for Expansion (RDE)” value ([1]; monotherapy, Arm A D1 q3w) was 45 mg, the “Maximum Tolerated Dose (MTD)” value ([1]; monotherapy, Arm B D1 D8 q4w) was 45 mg and the Best overall response [2, 5] was “PR (PR, tumor shrinkage of at least −30%)”. For the same compound, the “days of exposure to the MDM2i of formula I” value (from here on “days of exposure”) [2, 5] was 778 days, the Best overall response [2, 6] was “SD (SD, tumor growth modification between +20% and −30%)” and the “days of exposure” value [2, 6] was 107 days. The Best overall response ([2]; Arm A patient 1392001011, WDLPS, 80 mg D1q3w) was “PR (PR, tumor shrinkage of at least −30%)”, the “days of exposure” value ([2]; Arm A patient 1392001011, WDLPS, 80 mg D1q3w, ongoing) was 228 days and the Best overall response ([2]; Arm A patient 1840002004, DDLPS, 45 mg D1q3w) was “SD (SD, tumor growth modification between +20% and −30%)”. The “days of exposure” value ([2]; Arm A patient 1840002004, DDLPS, 45 mg D1q3w, third line) was 353 days, the Best overall response [2, 7] was “SD (SD, tumor growth modification between +20% and −30%)” and the “days of exposure” value [2, 7] was 342 days. For the same compound, the Best overall response [2, 8] was “SD (SD, tumor growth modification between +20% and −30%)”, the “days of exposure” value [2, 8] was 85 days and the Best overall response [2, 9] was “SD (SD, tumor growth modification between +20% and −30%)”. The “days of exposure” value [2, 9] was 57 days, the Best overall response ([2]; Arm A patient 1840003013, WDLPS, 80 mg D1q3w) was “SD (SD, tumor growth modification between +20% and −30%)” and the “days of exposure” value ([2]; Arm A patient 1840003013, WDLPS, 80 mg D1q3w, ongoing) was 214 days. The Best overall response ([2]; Arm A patient 1846002602, DDLPS, 45 mg D1q3w) was “SD (SD, tumor growth modification between +20% and −30%)”, the “days of exposure” value ([2]; Arm A patient 1846002602, DDLPS, 45 mg D1q3w, second line) was 709 days and the tumor shrinkage ([2]; Arm A patient with p53-wildtype MDM2-amplified biliary adenocarcinoma, partial response) was 54%. The Best overall response [2, 10] was “SD (SD, tumor growth modification between +20% and −30%)”, the “days of exposure” value [2, 10] was 491 days and the Best overall response [2, 11] was “SD (SD, tumor growth modification between +20% and −30%)”. For the same compound, the “days of exposure” value [2, 11] was 218 days, the Best overall response [2, 12] was “SD (SD, tumor growth modification between +20% and −30%)” and the “days of exposure” value [2, 12] was 105 days. For the same compound, the Best overall response [2, 13] was “SD (SD, tumor growth modification between +20% and −30%)”, the “days of exposure” value [2, 13] was 542 days and the Best overall response [2, 14] was “SD (SD, tumor growth modification between +20% and −30%)”. For the same compound, the “days of exposure” value [2, 14] was 274 days, the Best overall response [2, 15] was “SD (SD, tumor growth modification between +20% and −30%)” and the “days of exposure” value [2, 15] was 64 days. For the same compound, the Best overall response [2, 16] was “SD (SD, tumor growth modification between +20% and −30%)”, the “days of exposure” value [2, 16] was 100 days and the Best overall response ([2]; Arm B patient 1840003012, WD LPS, 60/60 mg D1D8q4w) was “PR (PR, tumor shrinkage of at least −30%)”. The “days of exposure” value ([2]; Arm B patient 1840003012, WD LPS, 60/60 mg D1D8q4w, ongoing) was 221 days, the Best overall response [2, 17] was “SD (SD, tumor growth modification between +20% and −30%)” and the “days of exposure” value [2, 17] was 127 days. The tumor shrinkage ([2]; Arm B patient with p53 wildtype MDM2-amplified pancreatic adenocarcinoma (PAC), partial response) was 41%, the tumor shrinkage ([2]; DDLPS patient, 45 mg, second line therapy, for 709 days) was “approx. 5%” and the tumor shrinkage ([2]; DDLPS patient, 45 mg, third line therapy, for 353 days) was “approx. 10%”. The “Disease control, % of patients” value ([2]; arm A (29 treated)) was “(75.9) %”, the “Disease control, number of patients” value ([2]; arm A (29 treated)) was 22 and the “Partial response, number of patients” value ([2]; arm A (29 treated)) was 3. The “Progressive disease, % of patients” value ([2]; arm A (29 treated)) was “(20.7) %”, the “Progressive disease, number of patients” value ([2]; arm A (29 treated)) was 6 and the “Stable disease, number of patients” value ([2]; arm A (29 treated)) was 19. For the same compound, the “Disease control, % of patients” value ([2]; arm B (25 treated)) was “(68) %”, the “Disease control, number of patients” value ([2]; arm B (25 treated)) was 17 and the “Partial response, number of patients” value ([2]; arm B (25 treated)) was 2. The “Progressive disease, % of patients” value ([2]; arm B (25 treated)) was “(20) %”, the “Progressive disease, number of patients” value ([2]; arm B (25 treated)) was 5 and the “Stable disease, number of patients” value ([2]; arm B (25 treated)) was 15. The “Disease control, % of patients” value ([2]; both arms (54 treated)) was “(72) %”, the “Disease control, number of patients” value ([2]; both arms (54 treated)) was 39 and the “Partial response, number of patients” value ([2]; both arms (54 treated)) was 5. For the same compound, the “Progressive disease, % of patients” value ([2]; both arms (54 treated)) was “(20.3) %”, the “Progressive disease, number of patients” value ([2]; both arms (54 treated)) was 11 and the “Stable disease, number of patients” value ([2]; both arms (54 treated)) was 34. The “approximate median PFS” value ([2]; eleven dedifferentiated liposarcoma (DDLPS) patients) was “around 10.8 months”, the “patients with partial response” value ([2]; of seven well differentiated liposarcoma (WDLPS) patients) was “three” and the duration of response ([2]; one patient in Arm A) was “more than 2 years”. The Cmax ([3]; at predicted human therapeutic dose, QW) was 680 nM, the “predicted human therapeutic dose” value ([3]; free acid, QW dosing) was 64 mg and the AUC(0-t) ([3]; oral, 64 mg, QW dosing in humans, corrected for plasma protein binding human vs mouse, read-out: effective AUC0-168) was 11.3 µM·h. The “minimum effective AUC0-168” value [4] was 30,700 nM*h.
